Series [1] in a line: Surface tension and cmc, Kruss tensiometer K12. The format is physicochemical. The method, then:
Samples of which surface tensions were to be measured were prepared by mixing SLS and a cationic compound in a mole ratio of 1:1, wherein deionized water was used as water, and a container for measurement was immersed in a cleaning solution for more than 3 hours, washed with water and acetone, dried in an oven, and then used.
A ring method was used, and after measuring 5 times, a mean value was taken. Solutions of 1%, 0.1%, 0.01%, and 0.001% by weight ratio of each of the cationic compounds were prepared to use for the tests.

A short description of series [2]: Stability to hard water (10,000 ppm CaCl2 hard water added until cloudiness). To be noted: for Precipitation in hard water: 0.5% (weight ratio), 100 ml sample. The format is physicochemical. The method, then:
After dissolving 11.69 g of CaCl2.2H2O in 1 liter of water to prepare hard water of 10,000 ppm, it was slowly added to a 0.5% aqueous solution sample, and stability to hard water was evaluated using the amount of hard water added until cloudiness began.
Hard water of 10,000 ppm prepared by dissolving 11.69 g of CaCl2.2H2O in 1 L of water was used for the tests. Stability to hard water was measured by adding hard water until pearl is appear, using 0.5% (weight ratio) of the cationic compound and 100 ml of the sample. This test was repeated by three times, and a mean value was taken.
Hard water at a 10,000 ppm concentration prepared by dissolving 11.69 g of CaCl2.2H2O in 1 L of water was used for the experiments. […] The tests were repeated by three times, and a mean value was measured.

Series [3] in a line: Foaming property (initial foamability and foam stability), semi-micro TK method. The class given is physicochemical. As to conditions: 1% solution. From the text:
As samples for measuring initial foamability and foam stability, samples prepared under the same conditions as those used for measuring Krafft point were used (Table 14). […] The semi-micro TK method was used for measurement, and mean values were taken after measuring three times.
The tests were repeated three times and a mean value was taken.
Experiments were repeated three times, and a mean value was taken. For the experiment, a 1% aqueous solution was used.

The nature of series [4]: Phase stability (appearance) of sample solutions. As to conditions: for Phase stability (appearance of sample solution): 1% aqueous solution.
Text: Concentration of a mixed system was controlled to 2% aqueous solution, and a mixing ratio of SLS and the cationic compound was controlled to 1:1 by mole ratio so that changes in physical properties could be remarkably shown (Table 1).
Series [5] in a line: Solubility noted for synthesized compounds. As to conditions: noted with the synthesis. The format is physicochemical.
Series [6] in a line: Measurement of Krafft point (cloudiness on cooling, transparency on re-heating). As to conditions: 1% solution. The class given is physicochemical. The procedure: In the Krafft point test, the temperature when the solution clouded through the previous test becomes transparent again while elevating the temperature were measured.
The temperature when cloudiness begins was measured while cooling the transparent cationic compound solution (condition of lowering temperature). Additionally, the temperature when the solution becomes transparent was measured while elevating the temperature of the cloudy solution (condition of elevating temperature).
Also, while elevating the temperature of the clouded solution, temperatures when the solutions became transparent again were measured (condition when elevating temperature).

Values joined by “and” are separate entries in the source; they are usually repeats but may differ in a detail not shown here. Identical values can stand only once. “Also recorded” adds a separate entry of the source.

As to `CCCCCCCCCCCC[N+](C)(C)[O-]` [Synthesis Example 19, N-Dimethyl Lauryl Amineoxide], the Surface tension was 53.88 mN/m in series [1] (concentration 0.001%), 31.67 mN/m in series [1] (concentration 0.01%), 29.59 mN/m in series [1] (concentration 0.1%) and 31.94 mN/m in series [1] (concentration 1%). Also, the “Precipitation in hard water” value in series [2] is recorded as “not precipitated”. In addition, the “Foaming property, result in words” value in series [3] was “foam immediately disappeared”. Further, in series [3], the “Foaming property, initial foamability, 0 min.” value turned out to be 210 mL. Moreover, the “Foaming property, 1 min.” value in series [3] (1 min.) was determined as 55 mL. Also, in series [4], the “Phase stability (appearance of sample solution)” value (“Phase stability” for short) is “transparent”.

Consider “N-(butyidimethylamino)ethanol [Synthesis Example 3]”, for which the Solubility entry in series [5] is “insoluble in acetone”.

On to “N-(dimethyldodecylamino ethanol (EO)4 [Synthesis Example 7]”, for which the Solubility entry in series [5] is listed as “soluble in acetone”.

For the compound `C[N+](C)(C)CCO` [Synthesis Example 5, N-(trimethylamino)ethanol], the Solubility result in series [5] was “insoluble in acetone”.

`C[N+](C)(CCO)CCCCCC[N+](C)(C)CCO.[I-].[I-]` [Synthesis Example 14, 1,6-[2-(N,N-dimethylamino)ethanol]hexane]: the Surface tension in series [1] (concentration 0.01%) came out at 71.41 mN/m; in series [1] (concentration 0.1%), 70.04 mN/m; in series [1] (concentration 1%), 59.49 mN/m. Besides, the “Foaming property, result in words” value in series [3] is “did not produced foam; also recorded: No foaming”. Besides, in series [4], the “Phase stability” value is recorded as “transparent”.

As for `CCCC[N+](C)([O-])CCCCCC[N+](C)([O-])CCCC` (stereo not drawn) [Synthesis Example 23, 16-(N,N-butylmethylamineoxyl)hexane], the Surface tension in series [1] (concentration 0.01%) amounted to 64.05 mN/m; in series [1] (concentration 0.1%), 56.46 mN/m; in series [1] (concentration 1%) it was 46.51 mN/m. Also, the “Precipitation in hard water” value in series [2] is “not precipitated”. In series [3], the “Foaming property, result in words” value was “did not produce foam”. In addition, the “Phase stability” value in series [4] is listed as “transparent”.

As for “1.6-12-(N,N-methyloctylamino)ethanollhexane [Synthesis Example 17]”, the Surface tension was 47.50 mN/m in series [1] (concentration 0.01%), 33.90 mN/m in series [1] (concentration 0.1%) and 27.91 mN/m in series [1] (concentration 1%). In addition, the “Foaming property, result in words” value in series [3] is recorded as “No foaming”. Further, the “Phase stability” value in series [4] is listed as “cloudiness”. Further, the “Concentration at which the solution became transparent” value in series [4] (cationic compound in water) amounted to 0.1 wt %.

Take `CCCCCCCCCCCCOS(=O)(=O)[O-].[Na+]` [SLS, sodium lauryl sulfate, reference compound]: the “Krafft point, when elevating temperature: solution transparent again” value in series [6] came out at 14 °C. In series [6] (sulfate), the “Krafft point, when lowering (dropping) temperature: cloudiness begins” value is 2˜3 °C and 2 °C and 2-3 °C. Moreover, the Surface tension was 57.18 mN/m in series [1] (concentration 0.01%), 25.19 mN/m in series [1] (concentration 0.1%) and 35.92 mN/m in series [1] (concentration 1%). The same compound came in with a Hard water concentration in series [2] (stability to hard water) of 310 ppm. For the same compound, the “Foaming property, result in words” value in series [3] was “maintains foam for 5 minutes almost constantly”. Further, the “Foaming property, initial foamability, 0 min.” value in series [3] was determined as 233 mL.

With `CCCCCCCC[N+](C)(C)CCO` [Synthesis Example 2, N-(dimethyloctylamino)ethanol], in series [5], the Solubility result is “insoluble in acetone”.

Regarding `CC[N+](C)(C)CCO` [Synthesis Example 4, N-(dimethylethylamino)ethanol], the Solubility result in series [5] is “soluble in acetone, insoluble in n-hexane”.

The values above are taken from patent US20050164903A1, “Complexed surfactant system” (priority 2001, published 2005).
